# Assay results published in US9676820B2, “Method for inhibiting proliferation of high LIX1L-expressing tumor cell, and tumor cell proliferation-inhibiting peptide” (National University Corporation Hamamatsu University School …, priority 2013, dated 2017).
# Assays:
# U937 strain = experiment: MTT assay, U937 strain; type: cell-based; details: peptide 0 μM to 100 μM, 72 hours
# Experimental: (§1) Specifically, first, cells plated in a 96-well microplate such that the density thereof became 5×10^3 cells/well were cultured for one night in a culture solution having the same composition as those in the reference examples. Thereafter, the culture solution was exchanged with 100 μL of a culture solution of which the concentration of peptides is 0 μM to 100 μM for culturing for 72 hours. After the culturing, an MTT-containing PBS solution was added to the culture solution, and the mixture was incubated for 4 hours. Then, formazan which was generated by putting 100 μL of isopropanol (containing 34 (v/v) % of hydrochloric acid) into each of the wells was dissolved. The absorbance of each of the wells of the microplate at 570 nm was measured using a microplate reader. As controls, culturing was performed in the same manner except that no peptide was added to the strains, an MTT assay was performed thereon, and the absorbance at 570 nm was measured (untreated).
# (§2) Specifically, the cells were cultured for 72 hours similarly to Example 2 except that a peptide to be added to a cell strain was set to peptide 1, 3, or 4, or a control peptide, an MTT assay was performed thereon, and the absorbance at 570 nm was measured.
# (§3) In the method for measuring the viable cell counts, cells were cultured for 3 days similarly to Example 1 except that a 25 μM (10 μM for an HL-60 strain, a K562 strain, and a U937 strain) culture solution containing a control peptide or a peptide 1 was used, and the viable cell counts were measured. As a comparison, culturing was performed similarly to the above using a culture solution containing no peptide, and the viable cell counts were measured (untreated).
# (§4) In addition, in the method for performing an MTT assay, cells were cultured for 72 hours similarly to Example 2 except that a peptide to be added to a strain was set to a control peptide or a peptide 1 at 25 μM (10 μM for an HL-60 strain, a K562 strain, and a U937 strain), an MTT assay was performed thereon, and the absorbance at 570 nm was measured. As a comparison, culturing was performed similarly to the above using a culture solution containing no peptide, and the MTT assay was performed thereon (untreated).
# K562 strain = experiment: MTT assay, K562 strain; type: cell-based; details: 72 hours; for absorbance at 570 nm (MTT assay), influence on cell proliferation: peptide 0 μM to 100 μM
# Experimental: as §1, §2, §3, §4
# (§5) Specifically, the cells were cultured for 72 hours similarly to Example 2 except that a peptide to be added to a cell was set to a peptide 1, 2, 5, or 6, MTT assays were performed thereon, and the absorbance at 570 nm was measured. As a comparison, culturing was performed similarly to the above using a culture solution containing no peptide, and the MTT assay was performed thereon (untreated).
# Specifically, the cells were cultured for 72 hours similarly to Example 2 except that peptides to be added to cell strains were set to peptides 7 to 14, MTT assays were performed thereon, and the absorbance at 570 nm was measured. As a comparison, culturing was performed similarly to the above using a culture solution containing no peptide, and the MTT assay was performed thereon (untreated).
# Specifically, the cells were cultured for 72 hours similarly to Example 2 except that a peptide to be added to a cell strain was set to a peptide 15 or 16, an MTT assay was performed thereon, and the absorbance at 570 nm was measured. As a comparison, culturing was performed similarly to the above using a culture solution containing no peptide, and the MTT assay was performed thereon (untreated).
# RPMI8226 strain = experiment: MTT assay, RPMI8226 strain; type: cell-based; details: peptide 0 μM to 100 μM, 72 hours
# Experimental: as §1, §2
# MKN45 cell strains = experiment: Cancer mouse model transplanted with MKN45 cell strain; type: in vivo; details: nude mice with MKN45 transplant; 100 μL of 30 μM peptide solution 4 times; vs spare mice given nothing
# Experimental: Rearing of 10 nude male mice (BALB/cAJcl-nu/nu, purchased from CLEA Japan, Inc.) at the age of 7 weeks was started, and MKN45 cell strains separately cultured were transplanted into the mice by being subcutaneously injected thereinto on day 31. The day on which the transplantation was performed was set as day 0, the mice were divided into two groups (peptide 1-administered group and control peptide-administered group) of 5 mice on day 14 of the transplantation, 4 mice were selected among the 5 mice from each group, and the peptide 1 or the control peptide was administered. The remaining one mouse was set as a spare. In the peptide 1-administered group, 100 μL of a 30 μM peptide 1 solution (solution prepared by adding a methylcellulose solution to the solution after the peptide 1 was dissolved in PBS (−)) was subcutaneously injected into a tumor site (site into which the MKN45 cell strain was injected) 4 times every 3 days. In the control peptide-administered group, 100 μL of a 30 μM control peptide solution (solution prepared by adding a methylcellulose solution to the solution after the control peptide was dissolved in PBS (−)) was subcutaneously injected into a tumor site 4 times on the same days as those in the peptide 1-administered group.
# The results in which the points of time (days) at which a peptide solution was administered to each mouse and the volume (mm^3) of a tumor site were temporally measured are shown in FIG. 21. For the volume of the tumor site, the width and the length of the tumor site determined from the appearance of the mouse were measured and calculated using the following formula. [Volume(mm^3) of Tumor Site]=([Width(mm) of Tumor Site]^2×[Length(mm) of Tumor Site])/2
# The “width of tumor site” referred herein means a maximum width of a portion in which the skin has risen due to the tumor and the “length of tumor site” means a maximum length of a portion in which the skin has risen due to the tumor.
# NUGC-4 strain = experiment: MTT assay, NUGC-4 strain; type: cell-based; details: 72 hours, peptide concentrations up to 250 μM
# Experimental: as §1, with “Thereafter, the culture solution was exchanged with 100 μL of a culture solution of which the concentration of peptides is 0 μM to 100 μM for culturing for 72 hours.” left out
# as §3, §4, §5
# (§6) Specifically, the cells were cultured for 72 hours similarly to Example 2 except that peptides to be added to cell strains were set to peptides 7 to 14, MTT assays were performed thereon, and the absorbance at 570 nm was measured. […]
# (§7) Specifically, the cells were cultured for 72 hours similarly to Example 2 except that a peptide to be added to a cell strain was set to a peptide 15 or 16, an MTT assay was performed thereon, and the absorbance at 570 nm was measured. […]
# 293 FLG = experiment: MTT assay, 293 FLG cells; type: cell-based; details: 72 hours, peptide concentrations up to 250 μM
# Experimental: as §1, with “Thereafter, the culture solution was exchanged with 100 μL of a culture solution of which the concentration of peptides is 0 μM to 100 μM for culturing for 72 hours.” left out
# as §3, §4, §5, §6, §7
# MKN45 strain = experiment: MTT assay, MKN45 strain; type: cell-based; details: 72 hours, peptide concentrations up to 250 μM
# Experimental: as §1, with “Thereafter, the culture solution was exchanged with 100 μL of a culture solution of which the concentration of peptides is 0 μM to 100 μM for culturing for 72 hours.” left out
# as §3, §4, §5, §6, §7
# 293 FLG/LIX1L = experiment: MTT assay, 293 FLG/LIX1L cells; type: cell-based; details: 72 hours, peptide concentrations up to 250 μM
# Experimental: as §1, with “Thereafter, the culture solution was exchanged with 100 μL of a culture solution of which the concentration of peptides is 0 μM to 100 μM for culturing for 72 hours.” left out
# as §3, §4, §5, §6, §7
Compound,"absorbance at 570 nm (MTT assay), cell proliferation (U937 strain)","absorbance at 570 nm (MTT assay), influence on cell proliferation (K562 strain)","absorbance at 570 nm (MTT assay), influence on cell proliferation (RPMI8226 strain)",other results
peptide 3: peptide in which the Y136-containing partial sequence consists of 20 amino acids (YGRKKRRQRRRXEMVPSNSPPYVCYVTLPGGS; peptide 3),inhibited,inhibited,not inhibited,–
peptide 4: peptide in which the Y136-containing partial sequence consists of 30 amino acids (YGRKKRRQRRRXALVVYEMVPSNSPPYVCYVTLPGGSCFGSF; peptide 4),inhibited,inhibited,not inhibited,–
"N=C(N)NCCC[C@H](NC(=O)CNC(=O)[C@@H](N)Cc1ccc(O)cc1)C(=O)N[C@@H](CCCCN)C(=O)N[C@@H](CCCCN)C(=O)N[C@@H](CCCNC(=N)N)C(=O)N[C@@H](CCCNC(=N)N)C(=O)N[C@@H](CCC(N)=O)C(=O)N[C@@H](CCCNC(=N)N)C(=O)N[C@@H](CCCNC(=N)N)C(=O)N[C@@H](CCCNC(=N)N)C(=O)NCCCCCC(N)=O [control peptide, reference compound]",–,–,–,body weight (MKN45 cell strains): no particularly significant change
YGRKKRRQRRR-X-HTQGYGRVNV-NH2 (YGRKKRRQRRRXHTQGYGRVNV; ε-aminocaproic acid linker; C-terminal amide; peptide 6),–,–,–,"cell proliferation (MTT assay, absorbance at 570 nm) (NUGC-4 strain): not inhibited; cell proliferation (MTT assay, absorbance at 570 nm) (293 FLG): not inhibited; cell proliferation (MTT assay, absorbance at 570 nm) (K562 strain; peptide concentrations up to 250 μM): not inhibited; cell proliferation (MTT assay, absorbance at 570 nm) (MKN45 strain): not inhibited; cell proliferation (MTT assay, absorbance at 570 nm) (293 FLG/LIX1L): not inhibited"
